This is an account of results in paper PMC9138683, “Decoding the Role of Melatonin Structure on Plasmodium falciparum Human Malaria Parasites Synchronization Using 2-Sulfenylindoles Derivatives” (Biomolecules, 2022).

In data set [1] the test system is Plasmodium falciparum 3D7 (chloroquine-sensitive). The data set is described as follows: In vitro drug susceptibility assay, 3D7 strain (flow cytometry, SYBR Green I / MitoTracker Deep Red). In kind it is cell-based. The note with it: Plasmodium falciparum, 3D7, 72 h, asynchronous parasites, 72 h, 0.1-100 µM; read-out: IC50 ± SD Pf3D7. As for the experimental part: The cultures were maintained under an atmosphere of 5% CO2, 5% O2, and 90% N2. Fresh complete medium was provided daily, and rapid-stained (Panotico) blood smears were examined.
To evaluate the effects of synthetic compounds on the intraerythrocytic development of P. falciparum, we analyzed parasitemia by flow cytometry with 0.3% initial parasitemia and 1% hematocrit in the assay. Plates were incubated with the compounds at concentrations ranging from 0.10 to 100 µM for 72 h. Dual staining with SYBR Green I (SG-I) (Invitrogen, Waltham, MA, USA) and MitoTracker Deep Red (MT-Red) (Invitrogen) were used to label nucleic acids and mitochondria, respectively. Approximately 10,000 cells were counted by an Accuri C6 (Becton Dickinson, San Jose, CA, USA) and analyzed by FlowJo 5 software. Parasitemia was determined from the analysis of dot plots (side scatter versus fluorescence).
We determined the susceptibility of P. falciparum to the indole compounds and investigated whether CQR parasites responded differently to the compounds. […] We determined the IC50 values for each compound by analyzing viable and non-viable parasites after compound treatment, represented in dot plots (Figure 1H).

The nature of data set [2]: Cytotoxicity assay (MTT). Format: cell-based, human. The settings on record: human, HEK293T (HEK293) cells, 0.10-100 µM, read-out: CC50 ± SD HEK293. As for the experimental part:
(§1) HEK293T (human embryonic kidney) cells were cultured in 75 cm^2 vented tissue culture flasks (Greiner Bio-One, Frickenhausen, Germany) at 37 °C in a humidified atmosphere containing 5% CO2 in Dulbecco’s modified […] (Gibco) supplemented with 10% (v/v) fetal bovine serum (Gibco), 100 U/mL penicillin, and 100 μg/mL streptomycin (Sigma). Cytotoxicity was evaluated with the 4,5-dimethylthiazol-2-yl-2,5-diphenyltetrazolium bromide (MTT) cell proliferation assay. Briefly, 10^4 cells/well were seeded in flat-bottom 96-well plates in complete DMEM medium for 24 h, followed by incubation with different concentrations of each compound (0.10–100 µM) for 72 h. DMSO (0.13%) and digitonin were used as the negative and positive controls, respectively. The concentrations of DMSO chosen as control were the concentration present in the tested compounds (from 0.0001% to 0.12%, two-fold dilution). After 72 h, cells were then incubated with the MTT reagent for 3 h, and absorbance was measured at 570 nm using a FlexStation® 3 Multi-Mode Microplate Reader (Molecular Devices, Sunnyvale, CA, USA). Moreover, we calculated the selectivity indexes (SI) to understand whether the compounds were more toxic to parasites than cells, or vice versa, according to the ratio of the CC50 value to the IC50 value for each compound.
(§2) We further assessed the toxicity of 2-sulfenylindole compounds against HEK293 cells using the MTT assay with different concentrations of the compounds for 72 h. Table 1 presents all the toxicity data and summarizes the IC50 values of the compounds evaluated in this study for Dd2 and 3D7 strains.

The test system of data set [3] is HEK293 cell line. Kind of data set: Cytotoxicity assay (MTT). Format: cell-based, human. The note with it: 72 h. As for the experimental part:
as §1, §2

For data set [4], the system named is P. falciparum 3D7 parasites. Kind of data set: Effects of indole derivatives (500 nM) on parasitemia. Format: cell-based, Plasmodium falciparum. The note with it: for Parasitemia (%), melatonin alone: normalized to DMSO control (100.6%), compound-alone experiment. As for the experimental part: (§3) To evaluate the role of the compounds in parasitemia, 1% 3D7 parasites in 2% hematocrit were incubated for 48 h with 500 nM of the 2-sulfenylindole derivatives. Melatonin (100 nM) was used as a positive control, and DMSO (0.0013% v/v) was used as a negative control. The concentration of DMSO chosen as control was the concentration present in the tested compounds at 500 nM. The activity of the compounds was measured by SG-I and MT-Red staining. The data obtained were normalized to those of the control (DMSO). Additionally, to test the ability of the compounds to affect melatonin activity in parasitemia, 3D7 parasites were incubated with 500 nM indole compounds along with 100 nM melatonin for 48 h.
After incubation, the final parasitemia was determined using flow cytometry.

The subject of data set [5] is P. falciparum 3D7 parasites. The data set is described as follows: Effect of 2-sulfenylindoles in combination with 100 nM melatonin on parasitemia. Format: cell-based, Plasmodium falciparum. The settings on record: 3D7, 48 h; for Parasitemia (%), melatonin alone: 100 nM melatonin only, normalized to DMSO control (100.7%), combination experiment. As for the experimental part: as §3
Following the assumption that compounds resembling melatonin structure might interact through the melatonin signaling pathways, we evaluated the effect of the compounds on melatonin action on parasitemia. Our next step was to study the combination of 2-sulfenylindoles with melatonin in asynchronous 3D7 by incubating parasites simultaneously with 100 nM melatonin and 500 nM of each compound.

Data set [6] has as its system P. falciparum 3D7 strain. Kind of data set: Blood-stage development evaluation by microscopy. Format: cell-based, Plasmodium falciparum. As for the experimental part: Ring-stage parasites (10–14 h) at 1% parasitemia in 2% hematocrit were treated with compound 20 and compound 28 at concentrations of 1 and 30 µM in 24-well plates for 48 h. Treatment with chloroquine (20 nM) and DMSO (0.1%) was used as positive and negative controls. Smears were rapid stained (Panotico) every 12 h after treatment (12, 24, 36, 48, and 60 h time points), and we took images of parasites to assess the blood-stage development (Zeiss, Oberkochen, Germany).
During monitoring, parasites continued to develop throughout the cycle in the presence of both compounds. […] To examine its stage specificity, we monitored development every 12 h.
Figure 5 Parasitemia reduction with compound 20 (A) and compound 28 (B) to determine the stage activity. Data are means ± SD. Ring-stage synchronized parasites with sorbitol 5% were treated with chloroquine (20 nM), compound 20 (30 µM), and compound 28 (30 µM). The chosen treatment concentration was the IC50 values obtained for these compounds against the 3D7 parasites. (C) After drug administration, smears of P. falciparum 3D7 strain were taken at 0, 12, 24, 36, 48, and 60 h after drug administration, observing the growth development of treated parasites. * p ≤ 0.05, ** p ≤ 0.01, *** p ≤ 0.001.

The subject of data set [7] is CDPKs, PKG, and its accessory genes. Kind of data set: Real-time PCR of CDPKs, PKG and accessory genes after melatonin treatment. Format: cell-based, Plasmodium falciparum. As for the experimental part:
P. falciparum trophozoites (approximately 30–34 h post invasion) were treated with 100 nM and 1 µM melatonin (SIGMA-Aldrich, Burlington, MA, USA). RNA was extracted with Trizol (Life Technologies, Carlsbad, CA, USA) 1 and 3 h post treatment. cDNA synthesis was carried out using random primers and Superscript IV reverse transcriptase (Life Technologies) according to the manufacturer’s protocol. Oligonucleotides used are listed in Supplementary Table S1. SYBR Green incorporation was measured during PCR amplification performed on the 7300 Real-Time PCR System (Applied Biosystems, Foster City, CA, USA). The statistical analysis was performed by applying Student’s t-test on the log2 values of relative expression (delta delta Ct method) of the genes (normalized with the seryl t-RNA synthase housekeeping gene).
Previous studies have shown that melatonin alters the expression of the ubiquitin/proteasome system, mitochondrial FIS1, DYN2 [27], and nuclear PfMORC [28]. These findings lead us to investigate the effect of melatonin on kinases, phosphodiesterase, and cyclase for two reasons; first, kinases and their components are required for rupturing the parasites to facilitate egress in both asexual and sexual stages. […] We treated the late-stage trophozoite with two different melatonin concentrations (100 nM and 1 µM) for two time points (1 and 3 h). […] It is possible that melatonin may act upstream of PKG and modulates cytosolic calcium, but this hypothesis requires more experimental validation.
Figure 6 Differential transcription of CDPKs, PKG, and its accessory genes from parasites treated with melatonin for 1 and 3 h. Sorbitol synchronized parasites were treated with melatonin, and RNA samples were extracted, purified, and transcript level was investigated by RT-qPCR. Expression of genes has been normalized by housekeeping seryl-tRNA Synthetase expression for (A) 100 nM melatonin for 1 h; (B) 100 nM melatonin for 3 h; (C) 1 μM melatonin for 1 h; and (D) 1 μM melatonin for 3 h. […]
On the technique in general: Quantitative PCR measures a nucleic acid by following its amplification.

Structures are written as SMILES. Entries after “also recorded” stand apart in the source; their conditions may differ.

As usually defined, the IC50 is the concentration at which inhibition is half-maximal. As usually defined, the CC50 is the concentration that lowers cell viability or growth by half.

In the case of `COC(=O)Cc1c(SCCCCCCCCCCC(=O)O)[nH]c2ccccc12` [Compound 20], in data set [1], the IC50 turned out to be 28.8 ± 4.86 µM. The CC50 at 72 h in data set [2] is greater than 100 µM. Also, in data set [3], the “cytotoxic effect against HEK293 cells (in words)” value is listed as “low cytotoxic effect”. In addition, the “effect on parasitemia (in words)” value in data set [4] (500 nM compound alone, 3D7 asynchronous, 48 h) was “led to an increase in parasitemia; also recorded: significantly increase the parasitemia”. The increase in parasitemia in data set [4] (500 nM compound, 3D7, 48 h, compared to DMSO control (100.6%)) is recorded as 9.1%. The activity at 0.5 µM in data set [4] (Plasmodium falciparum, 3D7, 48 h, normalized to DMSO control, read-out: Parasitemia (%) Treatment with compound (500nM)) is 110 ± 4.07%. The “Parasitemia (%) Treatment with compound (500nM) + Melatonin (100nM)” value in data set [5] (normalized to DMSO control) came to 122.3 ± 3.71%. Besides, the “effect on parasitemia during blood-stage progression” value in data set [6] (3D7, ring-stage synchronized, 30 µM (IC50), Figure 5A,B) is listed as “significantly affect parasitemia”. The “stage-specific effect on blood-stage development” value in data set [6] (ring-stage synchronized 3D7, treated at IC50 (30 µM for 20 and 28), monitored every 12 h) is recorded as “affects RBC reinvasion”.
`COc1ccc2[nH]cc(CCNC(C)=O)c2c1` [Melatonin] returned a rise in parasitemia in data set [4] (100 nM melatonin, 3D7, 48 h, from 100.6% (control)) of 6.9%. The “Parasitemia (%), melatonin alone” value in data set [4] (100 nM melatonin, 3D7, 48 h) stood at 107.5 ± 4.32%; in data set [4] (100 nM melatonin, 3D7, 48 h, listed as melatonin) it was 107.5%; in data set [5] it was 113.5 ± 2.75%; in data set [5] (listed as melatonin), 113.5%. Moreover, the “change in gene expression” value in data set [7] (100 nM melatonin for 1 h, late-stage trophozoite, CDPK1 and GCα) was “very minor effect”; in data set [7] (100 nM melatonin, after 3 h, additional CDPK6, CDPK7, PKG, PDEα, and GCβ), “increased expression”; in data set [7] (1 µM melatonin for 3 h, cGMP-dependent signaling component) it was “most prominent effect”.
